Legend:
[1] = biological target: CRBN-DDB1 (Homo sapiens, UniProt Q96SW2); experiment: Compound binding to CRBN by HTRF assay; conditions: CRBN-DDB1 2.5 nM, Cy5-Thalidomide 100 nM, 30 min at ambient temperature; read-out: HTRF Class (Cereblon binding, HTRF IC50)
Procedure, shortened: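 Cy5-thalidomide (100 nM) displacement from His-tagged CRBN-DDB1 (2.5 nM) read by terbium-cryptate HTRF (665/620 nm), in 20 mM HEPES, 20 mM NaCl, 0.2 mM TCEP, 0.2 mM EDTA, 0.005% Tween20. Compounds tested as 10-point 1:3 series, 30 min at ambient temperature. Signal normalised to DMSO and lenalidomide controls; IC50 fitted, Ki by Cheng-Prusoff.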

[2] = biological target: T1, GSPT1 (Homo sapiens, UniProt P15170+Q96SW2); experiment: Immunofluorescence assay for activity to degrade GSPT1 in CAL-51 cells; assay type: cell-based; conditions: 6 h treatment, read-out: IF Class (GSPT1 degradation, DC50)
T1 construct: CAL-51 cells were purchased from DSMZ (cat. Number ACC302); host or cells: CAL-51
Procedure, shortened: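 CAL-51 cells treated 6 h with compound (30 μM to 0.1 nM), fixed, immunostained for GSPT1 with DAPI and phalloidin counterstains, imaged by high-content microscopy. Mean per-cell GSPT1 intensity normalized to controls; DC50 by non-linear regression.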

Chain of CRBN-DDB1 (Q96SW2 whole entry): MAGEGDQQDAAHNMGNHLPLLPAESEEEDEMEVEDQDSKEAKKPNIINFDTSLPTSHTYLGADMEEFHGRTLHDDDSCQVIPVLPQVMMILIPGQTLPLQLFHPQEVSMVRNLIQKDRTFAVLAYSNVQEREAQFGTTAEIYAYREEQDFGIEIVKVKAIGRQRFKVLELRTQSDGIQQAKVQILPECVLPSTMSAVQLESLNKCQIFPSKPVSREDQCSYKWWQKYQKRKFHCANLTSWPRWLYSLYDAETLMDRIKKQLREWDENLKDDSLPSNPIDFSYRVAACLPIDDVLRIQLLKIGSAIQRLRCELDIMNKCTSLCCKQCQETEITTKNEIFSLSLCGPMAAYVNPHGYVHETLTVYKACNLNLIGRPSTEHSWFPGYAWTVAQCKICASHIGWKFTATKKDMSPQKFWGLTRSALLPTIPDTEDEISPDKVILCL
Chain of CRBN-DDB1 (Q16531 whole entry partner): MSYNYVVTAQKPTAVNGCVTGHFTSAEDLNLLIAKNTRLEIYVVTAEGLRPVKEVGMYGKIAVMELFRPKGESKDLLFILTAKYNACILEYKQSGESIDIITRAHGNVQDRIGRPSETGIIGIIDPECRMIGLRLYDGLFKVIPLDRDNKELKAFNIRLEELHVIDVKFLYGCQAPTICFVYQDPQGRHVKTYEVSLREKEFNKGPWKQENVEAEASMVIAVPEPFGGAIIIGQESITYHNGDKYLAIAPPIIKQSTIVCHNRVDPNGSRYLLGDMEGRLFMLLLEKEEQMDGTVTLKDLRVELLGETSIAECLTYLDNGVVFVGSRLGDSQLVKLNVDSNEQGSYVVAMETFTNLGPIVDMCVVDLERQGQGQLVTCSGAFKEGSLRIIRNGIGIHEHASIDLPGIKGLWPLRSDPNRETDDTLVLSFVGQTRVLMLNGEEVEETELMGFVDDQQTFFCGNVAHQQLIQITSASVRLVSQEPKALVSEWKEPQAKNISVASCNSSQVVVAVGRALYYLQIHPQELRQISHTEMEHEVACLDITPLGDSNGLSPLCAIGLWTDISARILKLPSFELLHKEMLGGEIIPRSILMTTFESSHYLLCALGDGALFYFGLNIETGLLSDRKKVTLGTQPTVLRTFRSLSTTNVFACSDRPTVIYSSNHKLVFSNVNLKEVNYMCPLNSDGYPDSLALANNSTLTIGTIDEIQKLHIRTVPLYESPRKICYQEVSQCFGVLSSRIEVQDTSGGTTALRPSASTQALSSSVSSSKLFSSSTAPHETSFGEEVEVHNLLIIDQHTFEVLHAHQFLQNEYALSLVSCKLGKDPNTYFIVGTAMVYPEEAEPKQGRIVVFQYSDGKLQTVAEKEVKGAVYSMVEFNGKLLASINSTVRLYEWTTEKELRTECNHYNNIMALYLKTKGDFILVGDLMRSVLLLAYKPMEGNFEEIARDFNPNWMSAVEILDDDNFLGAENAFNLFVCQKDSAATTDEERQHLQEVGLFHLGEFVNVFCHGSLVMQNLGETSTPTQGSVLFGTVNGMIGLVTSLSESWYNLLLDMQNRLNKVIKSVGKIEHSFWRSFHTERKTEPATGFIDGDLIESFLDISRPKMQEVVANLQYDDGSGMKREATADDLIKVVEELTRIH
T1 sequence (P15170 whole entry): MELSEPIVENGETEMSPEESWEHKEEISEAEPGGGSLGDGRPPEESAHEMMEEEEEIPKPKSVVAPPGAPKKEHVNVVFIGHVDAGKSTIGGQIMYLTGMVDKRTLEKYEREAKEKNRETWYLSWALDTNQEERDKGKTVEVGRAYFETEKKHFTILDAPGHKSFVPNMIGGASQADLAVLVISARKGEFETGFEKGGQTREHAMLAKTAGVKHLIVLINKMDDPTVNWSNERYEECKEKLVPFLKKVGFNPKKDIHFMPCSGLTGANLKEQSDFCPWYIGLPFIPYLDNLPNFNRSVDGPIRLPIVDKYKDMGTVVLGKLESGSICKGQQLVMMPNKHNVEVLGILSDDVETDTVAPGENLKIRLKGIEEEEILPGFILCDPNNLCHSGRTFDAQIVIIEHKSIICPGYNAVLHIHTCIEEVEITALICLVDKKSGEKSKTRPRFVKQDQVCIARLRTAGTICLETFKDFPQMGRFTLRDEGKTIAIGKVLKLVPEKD
T1 sequence (Q96SW2 whole entry): as the sequence (Q96SW2 whole entry) above
T1 sequence (Q16531 2-1140 partner limits assumed): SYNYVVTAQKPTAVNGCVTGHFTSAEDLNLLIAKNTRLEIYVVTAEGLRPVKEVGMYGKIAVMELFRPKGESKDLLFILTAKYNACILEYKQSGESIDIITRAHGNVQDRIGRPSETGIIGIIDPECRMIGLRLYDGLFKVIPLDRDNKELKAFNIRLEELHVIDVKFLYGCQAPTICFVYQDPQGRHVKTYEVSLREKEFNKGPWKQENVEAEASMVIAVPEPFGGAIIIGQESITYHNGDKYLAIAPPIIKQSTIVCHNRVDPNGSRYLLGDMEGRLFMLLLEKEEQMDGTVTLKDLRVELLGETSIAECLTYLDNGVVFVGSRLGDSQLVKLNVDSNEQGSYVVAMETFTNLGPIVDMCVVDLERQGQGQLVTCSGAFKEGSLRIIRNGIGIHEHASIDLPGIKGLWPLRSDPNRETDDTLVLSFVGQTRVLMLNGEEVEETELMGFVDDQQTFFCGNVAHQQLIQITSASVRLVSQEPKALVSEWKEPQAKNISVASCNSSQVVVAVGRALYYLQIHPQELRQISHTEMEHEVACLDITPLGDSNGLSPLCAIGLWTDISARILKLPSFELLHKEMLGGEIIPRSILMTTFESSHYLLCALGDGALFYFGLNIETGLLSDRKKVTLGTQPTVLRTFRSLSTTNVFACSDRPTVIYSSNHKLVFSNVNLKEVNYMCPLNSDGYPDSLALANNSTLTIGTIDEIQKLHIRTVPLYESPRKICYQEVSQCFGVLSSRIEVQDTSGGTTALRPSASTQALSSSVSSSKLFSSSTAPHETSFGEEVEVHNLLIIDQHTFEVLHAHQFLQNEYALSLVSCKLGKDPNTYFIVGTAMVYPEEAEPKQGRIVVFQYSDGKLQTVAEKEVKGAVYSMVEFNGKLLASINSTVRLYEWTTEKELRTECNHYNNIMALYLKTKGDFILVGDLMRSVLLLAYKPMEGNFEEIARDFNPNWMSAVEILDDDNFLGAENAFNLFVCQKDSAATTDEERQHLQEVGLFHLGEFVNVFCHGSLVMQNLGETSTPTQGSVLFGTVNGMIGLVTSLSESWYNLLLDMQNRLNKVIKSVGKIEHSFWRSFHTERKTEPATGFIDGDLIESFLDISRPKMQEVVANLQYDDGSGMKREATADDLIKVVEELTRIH

Row | IC50 [1] [nM] | DC50 [2] [nM] | SMILES
1 | > 1000 | > 300 | COc1c(N2CC(OC(=O)Nc3ccc(C)c(Cl)c3)C2)ccc(C2CCC(=O)NC2=O)c1Cl (stereo not shown) [Compound 59, 1-(3-chloro-4-(2,6-dioxopiperidin-3-yl)-2-methoxyphenyl)azetidin-3-yl (3-chloro-4-methylphenyl)carbamate]
2 | 100 to 1000 | ≤ 30 | CC1(c2ccc(NC(=O)NC3CN(c4cc(F)c(C5CCC(=O)NC5=O)c(F)c4)C3)cc2)CC1 (stereo not shown) [Compound 60, 1-(1-(4-(2,6-dioxopiperidin-3-yl)-3,5-difluorophenyl)azetidin-3-yl)-3-(4-(1-methylcyclopropyl)phenyl)urea]
3 | 100 to 1000 | ≤ 30 | O=C1CCC(c2c(F)cc(N3CC(OC(=O)NC45CC(c6ccccc6)(C4)C5)C3)cc2F)C(=O)N1 (stereo not shown) [Compound 61, 1-(4-(2,6-dioxopiperidin-3-yl)-3,5-difluorophenyl)azetidin-3-yl(3-phenylbicyclo[1.1.1]pentan-1-yl) carbamate]
4 | 100 to 1000 | > 300 | O=C1CCC(c2c(F)cc(N3CC(OC(=O)NC45CC(F)(C4)C5)C3)cc2F)C(=O)N1 (stereo not shown) [Compound 62, 1-(4-(2,6-dioxopiperidin-3-yl)-3,5-difluorophenyl)azetidin-3-yl(3-fluorobicyclo[1.1.1]pentan-1-yl)carbamate]
5 | 100 to 1000 | > 300 | O=C1CCC(c2c(F)cc(N3CC(OC(=O)NC45CC(C4)C5)C3)cc2F)C(=O)N1 (stereo not shown) [Compound 63, 1-(4-(2,6-dioxopiperidin-3-yl)-3,5-difluorophenyl)azetidin-3-yl bicyclo[1.1.1]pentan-1-ylcarbamate]
6 | ≤ 100 | ≤ 30 | Cc1cc(NC(=O)OC2CN(c3cc(F)c(C4CCC(=O)NC4=O)c(F)c3)C2)cc(CN2CC3CC2CO3)c1C (stereo not shown) [Compound 64, 1-(4-(2,6-dioxopiperidin-3-yl)-3,5-difluorophenyl)azetidin-3-yl(3-(2-oxa-5-azabicyclo[2.2.1]heptan-5-ylmethyl)-4,5-dimethylphenyl) carbamate]
7 | ≤ 100 | ≤ 30 | O=C1CCC(c2c(F)cc(N3CC(OC(=O)NC45CC(N6CCCCC6)(C4)C5)C3)cc2F)C(=O)N1 (stereo not shown) [Compound 65, 1-(4-(2,6-dioxopiperidin-3-yl)-3,5-difluorophenyl)azetidin-3-yl (3-(piperidin-1-yl)bicyclo[1.1.1]pentan-1-yl) carbamate]
8 | 100 to 1000 | 30 to 300 | Cc1ccc(NC(=O)NC2CN(c3ccc(C4CCC(=O)NC4=O)cc3)C2)cc1Cl (stereo not shown) [Compound 66, 1-(3-chloro-4-methylphenyl)-3-(1-(4-(2,6-dioxopiperidin-3-yl)phenyl)azetidin-3-yl)urea]
9 | 100 to 1000 | 30 to 300 | Cc1cc(C)cc(NC(=O)NC2CN(c3ccc(C4CCC(=O)NC4=O)cc3)C2)c1 (stereo not shown) [Compound 67, 1-(3,5-dimethylphenyl)-3-(1-(4-(2,6-dioxopiperidin-3-yl)phenyl)azetidin-3-yl)urea]
10 | ≤ 100 | 30 to 300 | O=C1CCC(c2c(F)cc(N3CC(OC(=O)NC45CC(CF)(C4)C5)C3)cc2F)C(=O)N1 (stereo not shown) [Compound 68, 1-(4-(2,6-dioxopiperidin-3-yl)-3,5-difluorophenyl)azetidin-3-yl (3-(fluoromethyl)bicyclo[1.1.1]pentan-1-yl) carbamate]
11 | 100 to 1000 | ≤ 30 | COc1ccc(C(F)(F)C23CC(NC(=O)OC4CN(c5cc(F)c(C6CCC(=O)NC6=O)c(F)c5)C4)(C2)C3)cc1 (stereo not shown) [Compound 69, 1-(4-(2,6-dioxopiperidin-3-yl)-3,5-difluorophenyl)azetidin-3-yl (3-(difluoro(4-methoxyphenyl)methyl)bicyclo[1.1.1]pentan-1-yl)carbamate]
12 | 100 to 1000 | ≤ 30 | O=C1CCC(c2c(F)cc(N3CC(OC(=O)NC45CC(C(F)F)(C4)C5)C3)cc2F)C(=O)N1 (stereo not shown) [Compound 70, 1-(4-(2,6-dioxopiperidin-3-yl)-3,5-difluorophenyl)azetidin-3-yl(3-(difluoromethyl)bicyclo[1.1.1]pentan-1-yl)carbamate]
13 | 100 to 1000 | > 300 | O=C1CCC(c2c(F)cc(N3CC(OC(=O)NC45CC(N6CCOCC6)(C4)C5)C3)cc2F)C(=O)N1 (stereo not shown) [Compound 71, 1-(4-(2,6-dioxopiperidin-3-yl)-3,5-difluorophenyl)azetidin-3-yl(3-morpholinobicyclo [1.1.1]pentan-1-yl) carbamate]
14 | > 1000 | 30 to 300 | COc1cc(C)c(Cl)cc1NC(=O)NC1CN(c2ccc(C3CCC(=O)NC3=O)cc2)C1 (stereo not shown) [Compound 72, 1-(5-chloro-2-methoxy-4-methylphenyl)-3-(1-(4-(2,6-dioxopiperidin-3-yl)phenyl)azetidin-3-yl)urea]
15 | 100 to 1000 | ≤ 30 | O=C1CCC(c2c(F)cc(N3CC(NC(=O)NC45CC(c6ccccc6)(C4)C5)C3)cc2F)C(=O)N1 (stereo not shown) [Compound 73, 1-(1-(4-(2,6-dioxopiperidin-3-yl)-3,5-difluorophenyl)azetidin-3-yl)-3-(3-phenylbicyclo[1.1.1]pentan-1-yl)urea]
16 | 100 to 1000 | > 300 | O=C1CCC(c2ccc(N3CC(NC(=O)Nc4cc(OC(F)(F)F)ccn4)C3)cc2)C(=O)N1 (stereo not shown) [Compound 74, 1-(1-(4-(2,6-dioxopiperidin-3-yl)phenyl)azetidin-3-yl)-3-(4-(trifluoromethoxy)pyridin-2-yl)urea]
17 | 100 to 1000 | 30 to 300 | COC(=O)C12CC(NC(=O)OC3CN(c4cc(F)c(C5CCC(=O)NC5=O)c(F)c4)C3)(C1)C2 (stereo not shown) [Compound 75, methyl 3-((((1-(4-(2,6-dioxopiperidin-3-yl)-3,5-difluorophenyl)azetidin-3-yl)oxy)carbonyl)amino)bicyclo[1.1.1]pentane-1-carboxylate]
18 | ≤ 100 | ≤ 30 | Cc1cc(NC(=O)OC2CN(c3cc(F)c(C4CCC(=O)NC4=O)c(F)c3)C2)ccc1F (stereo not shown) [Compound 76, 1-(4-(2,6-dioxopiperidin-3-yl)-3,5-difluorophenyl)azetidin-3-yl (4-fluoro-3-methylphenyl)carbamate]
19 | 100 to 1000 | ≤ 30 | O=C1CCC(c2c(F)cc(N3CC(NC(=O)N[C@H]4C[C@H](c5ccccc5)C4)C3)cc2F)C(=O)N1 (stereo partly drawn) [Compound 77, 1-(1-(4-(2,6-dioxopiperidin-3-yl)-3,5-difluorophenyl)azetidin-3-yl)-3-((1R,3R)-3-phenylcyclobutyl)urea]
20 | 100 to 1000 | ≤ 30 | Cc1cc(F)cc(NC(=O)OC2CN(c3cc(F)c(C4CCC(=O)NC4=O)c(F)c3)C2)c1 (stereo not shown) [Compound 78, 1-(4-(2,6-dioxopiperidin-3-yl)-3,5-difluorophenyl)azetidin-3-yl(3-fluoro-5-methylphenyl)carbamate]
21 | 100 to 1000 | 30 to 300 | O=C1CCC(c2c(F)cc(N3CC(OC(=O)NC4CCCCC4)C3)cc2F)C(=O)N1 (stereo not shown) [Compound 79, 1-(4-(2,6-dioxopiperidin-3-yl)-3,5-difluorophenyl)azetidin-3-yl cyclohexylcarbamate]
22 | ≤ 100 | ≤ 30 | C[C@H]1C[C@@H](NC(=O)OC2CN(c3cc(F)c(C4CCC(=O)NC4=O)c(F)c3)C2)C1 (stereo partly drawn) [Compound 80, 1-(4-(2,6-dioxopiperidin-3-yl)-3,5-difluorophenyl)azetidin-3-yl ((1S,3S)-3-methylcyclobutyl)carbamate]
23 | 100 to 1000 | > 300 | O=C1CCC(c2c(F)cc(N3CC(OC(=O)N[C@H]4CCOC4)C3)cc2F)C(=O)N1 (stereo partly drawn) [Compound 81, 1-(4-(2,6-dioxopiperidin-3-yl)-3,5-difluorophenyl)azetidin-3-yl ((S)-tetrahydrofuran-3-yl)carbamate]
24 | 100 to 1000 | > 300 | O=C1CCC(c2c(F)cc(N3CC(OC(=O)NCC4CC4)C3)cc2F)C(=O)N1 (stereo not shown) [Compound 82, 1-(4-(2,6-dioxopiperidin-3-yl)-3,5-difluorophenyl)azetidin-3-yl (cyclopropylmethyl)carbamate]
25 | 100 to 1000 | > 300 | O=C1CCC(c2c(F)cc(N3CC(OC(=O)N[C@@H]4CCOC4)C3)cc2F)C(=O)N1 (stereo partly drawn) [Compound 83, 1-(4-(2,6-dioxopiperidin-3-yl)-3,5-difluorophenyl)azetidin-3-yl ((R)-tetrahydrofuran-3-yl)carbamate]
26 | 100 to 1000 | > 300 | O=C1CCC(c2c(F)cc(N3CC(OC(=O)N[C@H]4CCCOC4)C3)cc2F)C(=O)N1 (stereo partly drawn) [Compound 84, 1-(4-(2,6-dioxopiperidin-3-yl)-3,5-difluorophenyl)azetidin-3-yl ((S)-tetrahydro-2H-pyran-3-yl)carbamate]
27 | 100 to 1000 | > 300 | O=C1CCC(c2c(F)cc(N3CC(OC(=O)N[C@@H]4CCCOC4)C3)cc2F)C(=O)N1 (stereo partly drawn) [Compound 85, 1-(4-(2,6-dioxopiperidin-3-yl)-3,5-difluorophenyl)azetidin-3-yl((R)-tetrahydro-2H-pyran-3-yl)carbamate]
28 | 100 to 1000 | > 300 | O=C1CCC(c2c(F)cc(N3CC(OC(=O)NC4CC4)C3)cc2F)C(=O)N1 (stereo not shown) [Compound 86, 1-(4-(2,6-dioxopiperidin-3-yl)-3,5-difluorophenyl)azetidin-3-yl cyclopropylcarbamate]
29 | 100 to 1000 | > 300 | O=C1CCC(c2c(F)cc(N3CC(OC(=O)NCC(F)(F)F)C3)cc2F)C(=O)N1 (stereo not shown) [Compound 87, 1-(4-(2,6-dioxopiperidin-3-yl)-3,5-difluorophenyl)azetidin-3-yl (2,2,2-trifluoroethyl)carbamate]
